Columns and labels:
A549 cells = experiment: MTS cytotoxicity assay (CellTiter 96); format: cell-based; settings: ~24 hours incubation
Experimental: (§1) High throughput cell viability assays were completed using standard procedures. Cytotoxicity of polymers was determined by the CellTiter 96® Aqueous Cell Proliferation Assay (Promega). A549 and HUVEC cells were cultured and incubated with polymers for ˜24 hours. Next, the media was removed and replaced with a mixture of 100 μL fresh culture media and 20 μL MTS reagent solution and cells were incubated for 3 hours at 37° C. in a 5% CO2 incubator. The absorbance of each well was then measured at 490 nm using a microtiter plate reader (SpectraMax, M25, Molecular Devices Corp.) to determine relative cell viability.

HUVEC cells = experiment: MTS cytotoxicity assay (CellTiter 96); format: cell-based; settings: ~24 hours incubation
Experimental: as §1

[1] = cited from earlier work

SMILES | toxic effect on A549 cells (A549 cells) | toxic effect on HUVEC cells (HUVEC cells) | relative iron binding constant ([1]; Fe(III)) | Log K ([1]; iron)
CC(=O)N(O)CCCCCNC(=O)CCC(=O)N(O)CCCCCNC(=O)CCC(=O)N(O)CCCCCN [DFO, desferoxamine] | no toxic effect | considerably toxic even at concentration as low as 10 μg/mL |  | 
O=C(N[C@H]1COC(=O)[C@@H](NC(=O)c2cccc(O)c2O)COC(=O)[C@@H](NC(=O)c2cccc(O)c2O)COC1=O)c1cccc(O)c1O [Enterobactin] |  |  | 35.5 | 52
